In paper PMC12484522, “Neuroprotective effects of chemical constituents from Nicotiana tabacum L. in Parkinson’s disease” (Natural Products and Bioprospecting, 2025):
Entries after “also recorded” stand apart in the source; their conditions may differ. Read-outs that look alike come from different tables or passages of the source.

Experiments:
[1] = target: T1, MAO-B (Homo sapiens, UniProt P27338); assay: MAO-B inhibition assay (kynuramine, fluorescence); type: biochemical
T1 sequence (P27338 1-520): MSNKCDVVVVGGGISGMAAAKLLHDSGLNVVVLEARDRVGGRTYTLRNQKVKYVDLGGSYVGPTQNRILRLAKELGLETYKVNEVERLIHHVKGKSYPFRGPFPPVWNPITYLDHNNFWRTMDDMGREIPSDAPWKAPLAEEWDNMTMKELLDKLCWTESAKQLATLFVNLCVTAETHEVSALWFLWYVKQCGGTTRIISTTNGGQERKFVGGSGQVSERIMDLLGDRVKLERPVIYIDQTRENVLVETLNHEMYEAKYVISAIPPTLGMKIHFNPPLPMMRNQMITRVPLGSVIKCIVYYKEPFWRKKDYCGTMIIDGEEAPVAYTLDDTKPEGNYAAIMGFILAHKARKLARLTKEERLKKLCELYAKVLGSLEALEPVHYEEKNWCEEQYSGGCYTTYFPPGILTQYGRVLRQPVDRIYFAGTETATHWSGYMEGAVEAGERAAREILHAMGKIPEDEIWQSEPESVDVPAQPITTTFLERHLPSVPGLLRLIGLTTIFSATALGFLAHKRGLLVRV
Procedure: In preparing the microplates, 50 μL of MAO-B (2.5 U/mL) was combined with 100 μL of the test compounds at different concentrations. This mixture was incubated at 37 °C for 10 min. […] Next, 50 μL of kynuramine (0.2 mM) sourced from Macklin in Shanghai, China, was added to the mixture. The resulting mixture was incubated at 37 °C for an additional 30 min. The reaction was halted by adding 80 μL of 2 N NaOH. Ultimately, the enzyme activity was measured using a microplate reader, with the excitation and emission wavelengths set at 310 nm and 400 nm, respectively.

[2] = ABTS+ radical scavenging assay; settings: for IC50: read-out: ABTS+ IC50 (μM) ± SD
Procedure: Various concentrations of the compounds (60 μL each) were then combined with 150 μL of the diluted ABTS^+ solution. The reaction was maintained in the dark at 30 °C for 6 min. Afterwards, the absorbance was determined at 734 nm with a microplate reader. The calculation of ABTS radical scavenging activity followed the same method as for DPPH radical scavenging activity. IC50 values were determined using GraphPad Prism 7.0, and all tests were conducted in triplicate.

[3] = DPPH radical scavenging assay; settings: for IC50: read-out: DPPH IC50 (μM) ± SD
Procedure: The antioxidative capacity of the obtained compounds was carried out through DPPH radical scavenging assays and ABTS assay (Macklin, Shanghai, China) with some modifications, and Vitamin C was used as the positive control. In the DPPH assay, 60 μL of the isolates at varying concentrations were mixed with 100 μL of 100 μM DPPH solution in ethanol in a 96-well microplate. The mixture was shaken for 10 s and then allowed to sit in darkness at 30 °C for 5 min. Subsequently, the absorbance was determined using a microplate reader at a wavelength of 517 nm. The radical-scavenging activity of the compounds was assessed using the formula RSA (%) = [(AB-AA)/AB] × 100%, where AA was the absorbance of the sample and AB was the absorbance of the blank sample. The IC50 value was calculated with GraphPad Prism 7.0, and all experiments were conducted in triplicate.

[4] = tested on: 6-OHDA-induced PC12 cells; assay: Neuroprotective effect in 6-OHDA-induced PC12 cells (CCK-8 cell viability); type: cell-based
Procedure: Two-dimensional (2D) cell culture models were used for performing cell viability assays. Approximately 10,000 PC12 cells (Fenghui, Changsha, China) were seeded into each well of a 96-well plate. The cells underwent pre-treatment with the test compounds for 2 h at 37 °C. […] The plate was incubated at 37 °C for 1 h after adding 10 μL of CCK-8 solution (ProteinTech, Chicago, USA) to each well. Then, each well's optical density (OD) was measured at 450 nm using a multimode microplate reader (Waltham, MA, USA).

[5] = tested on: PC12 cell; assay: Cytotoxicity experiment on PC12 cells; type: cell-based; settings: 0.5–100 μM
[6] = target: T1, MAO-B; assay: Kinetic studies of MAO-B inhibition (Lineweaver–Burk plots); type: biochemical
Procedure: The kinetic study of MAO-B inhibition was the Lineweaver–Burk plot, which was performed using the Lineweaver–Burk curve method. […] Kinetic characterization of their MAO-B inhibition was recorded 20 min after initiation. Constants Kis and Ki were calculated using the Lineweaver–Burk plots.

[7] = tested on: MAO-B over MAO-A; settings: cited from earlier work
[8] = tested on: dopamine levels and striatal DOPAC; design: method as in PMID 26796202; settings: intraperitoneal, 80 mg/kg; cited from earlier work
[9] = target: murine MAO-B; design: method as in PMID 26796202; settings: cited from earlier work
[10] = target: human MAO-B; design: method as in PMID 26796202; settings: selective and reversible inhibition; cited from earlier work
[11] = MAO-B, 50 μM, read-out: Inhibition rate ± SD (%) (50 μM)
[12] = MAO-B, dose–response, read-out: IC50 (μM) ± SD

Q: With `CC(=O)/C=C/C/C(C)=C/CC/C(C)=C/CC/C(C)=C/CC/C(C)=C/CO` [Compound 1, Nicotiazanorpenoid A] as the molecule, how does the inhibition at 50 µM [1, 11] read?
A: 15.4 ± 8.16%

Q: With `OCCc1ccccc1` [Compound 7, 2-phenylethanol] as the molecule, how does the inhibition at 50 µM [1, 11] read?
A: 14.4 ± 4.04%

Q: For `CC1=CC(=O)CC(C)(C)[C@H]1/C=C/[C@@H](C)O` [Compound 5, (6R,9S)-3-oxo-α-ionol], which inhibition at 50 µM [1, 11] is on record?
A: 24 ± 8.05%

Q: For `COc1cc(C(CO)OC)ccc1O` (stereo not drawn) [Compound 19, 4-hydroxy-β,3-dimethoxybenzeneethanol], which “ABTS+ RSA ± SD (50 μM)” value [2] is on record?
A: 59.17 ± 3.59%

Q: And the IC50 [2]?
A: 84.06 ± 0.76 µM

Q: What about the inhibition at 50 µM [1, 11] of the same molecule?
A: 3.71 ± 4.89%

Q: For `O=C1O[C@H]([C@@H](O)CO)C(O)=C1O` [Vitamin C, ascorbic acid, reference compound], which “ABTS+ RSA ± SD (50 μM)” value [2] is on record?
A: 99.80 ± 0.09%

Q: And the IC50 [2]?
A: 14.46 ± 0.03 µM

Q: What about the “DPPH RSA ± SD (50 μM)” value [3] of the same molecule?
A: 99.97 ± 0.05%

Q: And the IC50 [3]?
A: 9.12 ± 0.25 µM

Q: For `O=C1C=CCCN1` [Compound 22, 5,6-dihydropyridin-2(1H)-one], which inhibition at 50 µM [1, 11] is on record?
A: 1.05 ± 3.46%

Q: For `CC(C)c1cc2c(cc1O)[C@@]1(C)CCCC(C)(C)[C@@H]1CC2` [Compound 8, ferruginol], which inhibition at 50 µM ([1]; read-out: Inhibition rate ± SD (%) (50 μM), MAO-B, 50 μM) is on record?
A: 17.5 ± 1.5%

Q: With `CC1=CC(=O)CC(C)(C)[C@H]1CC[C@@H](C)O` [Compound 4, blumenol C] as the molecule, how does the inhibition at 50 µM [1, 11] read?
A: 16.5 ± 7.04%

Q: With `COC(=O)c1ccc(O)cn1` [Compound 17, methyl 5-hydroxypicolinate] as the molecule, how does the inhibition at 50 µM [1, 11] read?
A: 17.1 ± 5.06%

Q: For `COc1cc(CCO)ccc1O` [Compound 20, homovanillic alcohol], which “ABTS+ RSA ± SD (50 μM)” value [2] is on record?
A: 57.38 ± 1.01%

Q: What about the IC50 [2] of the same molecule?
A: 60.5 ± 1.18 µM

Q: And the inhibition at 50 µM [1, 11]?
A: 2.98 ± 2.8%

Q: With `CCCCC/C=C\C/C=C\CCCCCCCC(=O)O` [Compound 15, linolic acid] as the molecule, how does the inhibition at 50 µM [1, 11] read?
A: 18 ± 4.32%

Q: For `COc1cc(C(=O)CCO)ccc1O` [Compound 21, β-hydroxypropiovanillone], which “ABTS+ RSA ± SD (50 μM)” value [2] is on record?
A: 36.36 ± 1.01%

Q: What about the IC50 [2] of the same molecule?
A: 348 ± 17.5 µM

Q: What about the inhibition at 50 µM ([1]; read-out: Inhibition rate ± SD (%) (50 μM)) of the same molecule?
A: 11.2 ± 1.81%

Q: With `C#CCN[C@@H]1CCc2ccccc21` [Rasagiline, rasagiline, reference compound] as the molecule, how does the Cell viability ([4]; positive control, abstract: at equivalent concentrations) read?
A: 88.36%

Q: With `CC/C=C\C/C=C\C/C=C\CCCCCC(=O)OC` [Compound 14, Methyl (7Z,10Z,13Z)-7,10,13-hexadecatrienoate] as the molecule, how does the inhibition at 50 µM [1, 11] read?
A: > 30%

Q: And the IC50 [1, 12]?
A: 201 ± 7.03 µM

Q: And the Cytotoxicity [5]?
A: extremely low cytotoxicity

Q: What about the “Neuroprotective effect at various concentrations” value ([4]; 0.5–100 μM) of the same molecule?
A: enhanced cell viability across all tested concentrations, except 50 μM

Q: And the viability at 5 µM ([4]; Rattus norvegicus, PC-12, 5 μM (best concentration))?
A: 93.9%

Q: What about the viability at 100 µM ([4]; Rattus norvegicus, PC-12, 100 μM, model group 63.58%) of the same molecule?
A: 87.1%

Q: With `CCC1=C(/C=C/C(O)CCCCCCCC(=O)OC)CCC1=O` (stereo not drawn) [10/11, phytoprostanes B1 type II] as the molecule, how does the “Inhibition mechanism against MAO-B” value [6] read?
A: competitive MAO-B inhibitors; also recorded: competitive inhibition mechanism

Q: What about the IC50 [1, 12] of the same molecule?
A: 37.7 ± 1.57 µM

Q: Which results are given for `COc1cc2ccc(=O)oc2cc1O` [Compound 3, scopoletin]?
A: Selectivity for MAO-B over MAO-A [7]: approximately 3.5 fold; Dopamine levels [8]: significantly elevated; Striatal metabolite 3,4-dihydroxyphenylacetic acid (DOPAC) [8]: reducing; Ki [9]: 22 µM; Ki [10]: 20.7 µM; Inhibition mechanism against MAO-B [6]: non-competitive inhibitor; Ki ([6]; MAO-B, read-out: Ki value (equilibrium constant for inhibitor-enzyme binding)): 78.8 µM; ABTS+ RSA ± SD (50 μM) [2]: 68.91 ± 1.75%; IC50 [2]: 27.7 ± 1.2 µM; IC50 [1]: 40.2 ± 1.21 µM

Q: Which inhibition at 50 µM [1, 11] does the source give for `C=C(C)/C=C/[C@@H](CC/C(C)=C/CC/C(C)=C/C=O)C(C)C` [Compound 2, 2,6,11,13-tetradecatetraenal-3,7,13-trimethyl-10-(1-methylethyl)] here?
A: 11 ± 3.99%

Q: With `CC(C)c1cc2c(cc1O)[C@@]1(C)CCCC(C)(C)[C@@H]1C=C2` [Compound 9, 6,7-dehydroferruginol] as the molecule, how does the inhibition at 50 µM [1, 11] read?
A: 7.04 ± 4.08%

Q: For `O=C(O)c1ccc(O)cc1` [Compound 18, paraben-acid], which inhibition at 50 µM [1, 11] is on record?
A: 8.29 ± 3.9%

Q: With `COCc1ccc(C=O)[nH]1` [Compound 16, 5-(methoxymethyl)-1H-pyrrole-2-carboxaldehyde] as the molecule, how does the inhibition at 50 µM [1, 11] read?
A: 22.2 ± 5.24%

Q: For isoferulic acid [Compound 6], which “ABTS+ RSA ± SD (50 μM)” value [2] is on record?
A: 92.90 ± 0.45%

Q: What about the IC50 [2] of the same molecule?
A: 18.1 ± 2.49 µM

Q: What about the “DPPH RSA ± SD (50 μM)” value [3] of the same molecule?
A: 36.00 ± 1.01%

Q: What about the IC50 [3] of the same molecule?
A: 152 ± 1.75 µM
